Laboratory results as given in US20260007133A1, “HERBICIDAL COMPOSITION COMPRISING AZINE COMPOUNDS” (BASF SE, priority 2022, published 2026).
Like-named read-outs stand apart in the source and are kept apart here.

Key:
Type in all cases: in vivo
Alopecurus myosuroides = assay: Greenhouse pre-emergence (PRE) herbicidal test on ALOMY; settings: Alopecurus myosuroides, pre-emergence, PRE; ALOMY; use rate 4 gai/ha
Method in brief: (§1)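 Seeds were sown per species in loamy sand with ~3.0% humus, treated pre-emergence and kept at 10-25° C or 20-35° C depending on species. Damage was scored at 20 days after treatment on a 0-100 scale (100 = no emergence or complete destruction of above-ground parts, 0 = no damage).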

Ipomoea hederacea = assay: Greenhouse post-emergence (POST) herbicidal test on IPOHE; settings: Ipomoea hederacea, post-emergence
Method in brief: (§2)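 Greenhouse weeds, raised in pots of humus-containing loamy sand, receive a water-based spray of the actives once 3 to 15 cm tall. Damage is rated visually from 0 (none) to 100 (above-ground parts destroyed) 20 days after treatment.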

Abutilon theophrasti = assay: Greenhouse post-emergence (POST) herbicidal test on ABUTH; settings: Abutilon theophrasti, post-emergence; for pest or weed control at 2 g/ha: I-3 solo 2 gai/ha
Method in brief: as §2

Galium aparine = assay: Greenhouse pre-emergence (PRE) herbicidal test on GALAP; settings: Galium aparine, pre-emergence, PRE, GALAP
Method in brief: (§3)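 Seeds sown in loamy sand (~3.0% humus); compounds in water applied by fine nozzles directly after sowing, then pots irrigated and hooded until rooting. Plants held at 10-25° C or 20-35° C by species; damage scored 0-100 (100 = no emergence/complete destruction) 20 days after treatment.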

Euphorbia heterophylla = assay: Greenhouse pre-emergence (PRE) herbicidal test on EPHHL; settings: Euphorbia heterophylla, pre-emergence
Method in brief: as §1

Amaranthus retroflexus = assay: Greenhouse pre-emergence (PRE) herbicidal test on AMARE; settings: Amaranthus retroflexus, pre-emergence, 480 h, PRE, 20 DAT; for inhibition at 2 g/ha: AMARE
Method in brief: as §1

Geranium pusillum = assay: Greenhouse post-emergence (POST) herbicidal test on GERPU; settings: for inhibition at 2 g/ha: use rate 2 gai/ha; for inhibition at 4 g/ha: use rate 4 gai/ha
Method in brief: as §2

Setaria viridis = assay: Greenhouse pre-emergence (PRE) herbicidal test on SETVI; settings: Setaria viridis, pre-emergence, 480 h, 20 DAT
Method in brief: as §3

Molecule COc1c(Cl)cc(F)c(F)c1Nc1nc(N)nc(C(C)(C)F)n1 [Compound I-3] has an inhibition at 4 g/ha (Alopecurus myosuroides) of 90%, a pest or weed control at 8 g/ha (Ipomoea hederacea; 480 h, POST, 8 gai/ha, 20 DAT) of 90% and an inhibition at 2 g/ha (Ipomoea hederacea; 480 h, POST, IPOHE, 2 gai/ha, 20 DAT, read-out: % activity solo application) of 80%. It also gave an inhibition at 8 g/ha (Ipomoea hederacea; 480 h, POST, IPOHE, 8 gai/ha, 20 DAT, read-out: % activity solo application) of 70%, an inhibition at 2 g/ha (Ipomoea hederacea; IPOHE POST, use rate 2 gai/ha, read-out: % activity) of 65% and a pest or weed control at 2 g/ha (Abutilon theophrasti; 432 h, POST, ABUTH, 18 DAT) of 35%. For the same molecule, the pest or weed control at 8 g/ha (Abutilon theophrasti; 432 h, POST, ABUTH, I-3 solo 8 gai/ha, 18 DAT) was 65%, the pest or weed control at 8 g/ha (Abutilon theophrasti; 480 h, POST, 8 gai/ha, 20 DAT) was 50% and the inhibition at 2 g/ha (Abutilon theophrasti; 480 h, POST, ABUTH, 2 gai/ha, 20 DAT, read-out: % activity solo application) was 10%. It also gave a pest or weed control at 2 g/ha (Abutilon theophrasti; 480 h, POST, ABUTH, 20 DAT) of 50%, a pest or weed control at 8 g/ha (Abutilon theophrasti; 480 h, POST, ABUTH, I-3 solo 8 gai/ha, 20 DAT) of 80% and an inhibition at 2 g/ha (Abutilon theophrasti; 480 h, POST, ABUTH, use rate 2 gai/ha, 20 DAT, read-out: solo application % activity) of 10%. The inhibition at 4 g/ha (Abutilon theophrasti; 480 h, POST, ABUTH, use rate 4 gai/ha, 20 DAT) was 10%, the inhibition at 16 g/ha (Abutilon theophrasti; 480 h, POST, ABUTH, use rate 16 gai/ha, 20 DAT) was 50% and the inhibition at 2 g/ha (Abutilon theophrasti; ABUTH POST, use rate 2 gai/ha, read-out: % activity) was 20%. The inhibition at 8 g/ha (Abutilon theophrasti; ABUTH POST, use rate 8 gai/ha, read-out: % activity) was 85%, the inhibition at 2 g/ha (Abutilon theophrasti; POST, ABUTH, use rate 2 gai/ha, read-out: % activity) was 30% and the inhibition at 2 g/ha (Galium aparine; use rate 2 gai/ha) was 15%. The inhibition at 8 g/ha (Galium aparine; use rate 8 gai/ha) was 75%, the pest or weed control at 2 g/ha (Euphorbia heterophylla; 432 h, PRE, EPHHL, I-3 solo 2 gai/ha, 18 DAT) was 15% and the pest or weed control at 8 g/ha (Euphorbia heterophylla; 432 h, PRE, EPHHL, I-3 solo 8 gai/ha, 18 DAT) was 75%. The inhibition at 2 g/ha (Euphorbia heterophylla; 480 h, EPHHL PRE, 20 DAT, use rate 2 gai/ha, read-out: % activity) was 0%, the inhibition at 8 g/ha (Euphorbia heterophylla; 480 h, EPHHL PRE, 20 DAT, use rate 8 gai/ha, read-out: % activity) was 50% and the pest or weed control at 8 g/ha (Euphorbia heterophylla; 480 h, PRE, 8 gai/ha, 20 DAT) was 50%. For the same molecule, the inhibition at 2 g/ha (Euphorbia heterophylla; 480 h, PRE, EPHHL, 2 gai/ha, 20 DAT, read-out: % activity solo application) was 5%, the inhibition at 8 g/ha (Euphorbia heterophylla; 480 h, PRE, EPHHL, 8 gai/ha, 20 DAT, read-out: % activity solo application) was 50% and the pest or weed control at 8 g/ha (Euphorbia heterophylla; 480 h, PRE, EPHHL, I-3 solo 8 gai/ha, 20 DAT) was 20%. It also gave an inhibition at 2 g/ha (Euphorbia heterophylla; 480 h, PRE, EPHHL, use rate 2 gai/ha, 20 DAT, read-out: solo application % activity) of 10%, an inhibition at 8 g/ha (Euphorbia heterophylla; 480 h, PRE, EPHHL, use rate 8 gai/ha, 20 DAT, read-out: solo application % activity) of 50% and an inhibition at 8 g/ha (Euphorbia heterophylla; EPHHL PRE, use rate 8 gai/ha, read-out: % activity) of 55%. It also gave an inhibition at 2 g/ha (Euphorbia heterophylla; PRE, EPPHL, use rate 2 gai/ha, read-out: % activity) of 45%, an inhibition at 8 g/ha (Euphorbia heterophylla; PRE, EPPHL, use rate 8 gai/ha, read-out: % activity) of 80% and a pest or weed control at 2 g/ha (Amaranthus retroflexus; 2 gai/ha) of 90%. For the same molecule, the inhibition at 2 g/ha (Amaranthus retroflexus; 2 gai/ha, read-out: % activity solo application) was 60%, the inhibition at 2 g/ha (Amaranthus retroflexus; use rate 2 gai/ha, read-out: solo application % activity) was 60% and the “% activity” value (Geranium pusillum; GERPU POST, use rate 8 gai/ha) was 50%. It also gave a pest or weed control at 2 g/ha (Geranium pusillum; Geranium pusillum, post-emergence, 432 h, POST, GERPU, I-3 solo 2 gai/ha, 18 DAT) of 25%, an inhibition at 2 g/ha (Geranium pusillum; Geranium pusillum, post-emergence, 480 h, GERPU POST, 20 DAT, read-out: % activity) of 25% and a pest or weed control at 2 g/ha (Geranium pusillum; Geranium pusillum, post-emergence, 480 h, POST, 2 gai/ha, 20 DAT) of 10%. The pest or weed control at 8 g/ha (Geranium pusillum; Geranium pusillum, post-emergence, 480 h, POST, 8 gai/ha, 20 DAT) was 75%, the pest or weed control at 2 g/ha (Geranium pusillum; Geranium pusillum, post-emergence, 480 h, POST, GERPU, I-3 solo 2 gai/ha, 20 DAT) was 20% and the pest or weed control at 8 g/ha (Geranium pusillum; Geranium pusillum, post-emergence, 480 h, POST, GERPU, I-3 solo 8 gai/ha, 20 DAT) was 10%. For the same molecule, the inhibition at 4 g/ha (Geranium pusillum; Geranium pusillum, post-emergence, 480 h, POST, GERPU, 20 DAT) was 0%, the inhibition at 16 g/ha (Geranium pusillum; Geranium pusillum, post-emergence, 480 h, POST, GERPU, use rate 16 gai/ha, 20 DAT) was 10% and the inhibition at 2 g/ha (Geranium pusillum; Geranium pusillum, post-emergence, GERPU POST, read-out: % activity) was 30%. The inhibition at 8 g/ha (Geranium pusillum; Geranium pusillum, post-emergence, GERPU POST, use rate 8 gai/ha, read-out: % activity) was 70%, the inhibition at 2 g/ha (Geranium pusillum; Geranium pusillum, post-emergence, POST, GERPU, read-out: % activity) was 20% and the inhibition at 4 g/ha (Geranium pusillum; Geranium pusillum, post-emergence, POST, GERPU) was 40%. It also gave a pest or weed control at 2 g/ha (Setaria viridis; PRE, 2 gai/ha) of 60%, an inhibition at 2 g/ha (Setaria viridis; PRE, SETVI, 2 gai/ha, read-out: % activity solo application) of 50% and an inhibition at 2 g/ha (Setaria viridis; PRE, SETVI, use rate 2 gai/ha, read-out: solo application % activity) of 20%. For the same molecule, the inhibition at 2 g/ha (Setaria viridis; SETVI PRE, use rate 2 gai/ha, read-out: % activity) was 60%.
